# Assay results as given in patent US6541450B1, “Parathyroid hormone analogues for the treatment of osteoporosis” (National Research Council of Canada, priority 1994, dated 2003).
# Entries after “also recorded” stand apart in the source; their conditions may differ. Where two headings read alike, the source gives them in different places. Where a SMILES comes first, the peptide text is derived from it. Bridges are numbered along the chain shown (N, C = ends). Where no end group is shown, it is not given here.
# T1: adenylyl cyclase, ROS 17/2 cells (Rattus norvegicus, UniProt P25961)
# T1 sequence (P25961 27-591): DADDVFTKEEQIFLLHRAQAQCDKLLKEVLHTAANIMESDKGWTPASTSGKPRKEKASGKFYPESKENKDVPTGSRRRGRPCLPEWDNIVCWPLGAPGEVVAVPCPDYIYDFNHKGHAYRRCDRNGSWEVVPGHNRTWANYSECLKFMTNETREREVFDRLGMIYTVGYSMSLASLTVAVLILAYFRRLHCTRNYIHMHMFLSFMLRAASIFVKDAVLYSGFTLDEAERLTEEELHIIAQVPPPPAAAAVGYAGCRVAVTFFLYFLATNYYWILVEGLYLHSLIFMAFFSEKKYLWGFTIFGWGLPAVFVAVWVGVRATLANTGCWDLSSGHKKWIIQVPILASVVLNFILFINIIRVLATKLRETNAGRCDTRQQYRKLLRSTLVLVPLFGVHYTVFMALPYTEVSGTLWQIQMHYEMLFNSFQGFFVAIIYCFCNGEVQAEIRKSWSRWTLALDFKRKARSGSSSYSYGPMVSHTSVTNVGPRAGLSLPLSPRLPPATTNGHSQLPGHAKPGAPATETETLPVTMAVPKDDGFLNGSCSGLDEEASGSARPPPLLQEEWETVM
# B1: hPTH-(1-84) (protein, UniProt P01270 32-115, looked up)
# Parathyroid hormone: SVSEIQLMHNLGKHLNSMERVEWLRKKLQDVHNFVALGAPLAPRDAGSQRPRKKEDNVLVESHEKSLGEADKADVNVLTKAKSQ
# modifications: Parathyroid hormone
# notes: full-length human parathyroid hormone, AC/PLC-stimulating
# Experiments:
# [1] = molecular target: T1, adenylyl cyclase, ROS 17/2 cells; test: Adenylyl cyclase stimulation, [3H]-cyclic AMP production in ROS 17/2 cells; type: cell-based
# [2] = test system: ovariectomized (OVX) Sprague-Dawley rats; test: Anabolic activity in ovariectomized rat model, injections from 2nd to 8th week after OVX; type: in vivo; details: for osteogenic activity, in words: subcutaneously injected
# Description: A full description of the protocol is given in Rixon et al, J. Bone & Mineral Research 9, 1179-1189, 1994 and Whitfield et al Calcif. Tissue Int. 58, 81-87, 1996 incorporated herein by reference. Normal, Sham-OVX (ovariectomized), and OVX Sprague-Dawley rats (3 months-old; 255-260 g) were purchased from
# Charles River Laboratories (St. Constant, QC). The rats were randomized into groups of 8 animals which received Purina rat chow and water ad libitum. There were no unscheduled deaths. The animals received 6, once-daily subcutaneous injections/week starting at the end of the second week after OVX, and ending at the end of the 8th week after OVX (i.e., 36 injections). Eight Sham-OVX and 8 OVX controls rats received 36 injections of vehicle (0.15 M NaCl containing 0.001N HCl) while 8 OVX rats received 0.6 nmole of fragment in vehicle/100 g of body weight). At the end of the 8th week after OVX, femurs were removed isolated, cleaned, and cut in half at mid-diaphysis and the proximal half was discarded. After removing the epiphysis, each half-femur was split lengthwise into two parts and the bone marrow was flushed out.
# The bone-building potencies of the fragments were assessed from the changes in the mean thicknesses (area/perimeter) of the trabeculae in the distal half-femurs from the variously treated animals. To measure mean trabecular thickness, the two demineralized half-femurs from each rat were dehydrated and embedded in paraffin. Longitudinal, 10-μm sections from the middle plane of each bone were cut and then strained with Sanderson's rapid bone stain (Surgipath Medical Industries, Inc., Winnipeg, MB, Canada). The mean trabecular thickness was measured using a M4 imaging system and bone morphometric software from Imaging Research Inc., (St. Catherines, ON, Canada).
# The results are further presented in the form of a bar graph in FIG. 7.
# [3] = test system: ovariectomized (OVX) rats with severely depleted trabecular bone; test: Bone restoration in OVX rats with severely depleted trabecular bone, treatment from 9 weeks after OVX; type: in vivo, rat; details: 0.6 nmole/100 g once daily for 6 weeks, started 9 weeks after OVX
# Description: Doses were based upon dose-response data on hPTH(1-31)-NH2. […] By the end of the 9th week they had lost about 75% of their femoral trabecular bone mass. […] The fragment could also stimulate trabecular bone growth in much older rates. […] Accordingly, the dosage of 0.6 nmole/100 g of body weight was used in further tests.
# In this second example of bone restoration, the abilities of the lactam fragments to restore severely depleted trabecular bone are compared. In this experiment, the 6-week program of once-daily injections of 0.6 nmole of peptide/100 g of body weight of young sexually mature rats was delayed until the end of the 9th week after OVX. At this time, 75% of their trabecular bone had been lost.
# [4] = test system: anesthetized female Sprague-Dawley rats; test: Hypotensive effect, tail artery pressure in anaesthetized rats; details: for time to reduction of tail artery pressure: injection into a femoral vein
# Description: Female Sprague-Dawley rats (weighing over 290 g) were anaesthetized with intraperitoneally injected sodium pentobarbital (65 mg/kg body weight). Rectal temperature was monitored with a YS1402 thermistor (Yellow Springs Instrument Co., Inc. Yellow Springs, Ohio) and maintained between 36.0 and 38.5° C. throughout the experiment. Ear pinna temperature was also monitored using a YSi banjo thermistor. The tail artery was exposed to cannulated with a Jelco 25-gIV catheter (Johnson and Johnson Medical Inc., Arlington, Tex.) and connected to a Statham pressure transducer, the signals from which were recorded digitally with a Biopac Systems MP100 Monitor (Harvard Instruments, Saint Laurent, QC, Canada). For intravenous injection of PTH or one of its fragments, a femoral vein was also exposed. After surgery, the rat was allowed to stabilize for 8 min after which PTH or one of its fragments (dissolved in acidified saline containing 0.001 N HCl) was injected into the femoral vein or under the skin of the abdomen. Data were collected for 12 min after intravenous injection or for 22 min after subcutaneous injection.
# [5] = molecular target: T1, adenylyl cyclase, ROS 17/2 cells; details: previously reported, cited from earlier work
# PTH receptor [6] = molecular target: T2, PTH receptor (rat (ROS 17/2 rat osteosarcoma cell …, UniProt P25961)); test: cell-based or functional assay
# PTH receptor [7] = molecular target: T2, PTH receptor; test: cell-based or functional assay; remark: listed apart in the source
# [8] = ROS cell line, read-out: EC50, AC-stimulating activity
# [9] = intravenous, 0.8 nmol/100 g of body weight
molecule,measurement,setting,value
"CC[C@H](C)[C@H](NC(=O)[C@H](CCC(=O)O)NC(=O)[C@H](CO)NC(=O)[C@@H](NC(=O)[C@@H](N)CO)C(C)C)C(=O)N[C@@H](CCC(N)=O)C(=O)N[C@@H](CC(C)C)C(=O)N[C@@H](CCSC)C(=O)N[C@@H](Cc1c[nH]cn1)C(=O)N[C@@H](CC(N)=O)C(=O)N[C@@H](CC(C)C)C(=O)NCC(=O)N[C@@H](CCCCN)C(=O)N[C@@H](Cc1c[nH]cn1)C(=O)N[C@@H](CC(C)C)C(=O)N[C@@H](CC(N)=O)C(=O)N[C@@H](CO)C(=O)N[C@@H](CCSC)C(=O)N[C@@H](CCC(=O)O)C(=O)N[C@@H](CCCNC(=N)N)C(=O)N[C@H](C(=O)N[C@H]1CCC(=O)NCCCC[C@@H](C(=O)N[C@@H](CC(C)C)C(=O)N[C@@H](CC(C)C)C(=O)N[C@@H](CCC(N)=O)C(=O)N[C@@H](CC(=O)O)C(=O)N[C@H](C(N)=O)C(C)C)NC(=O)[C@H](CCCNC(=N)N)NC(=O)[C@H](CC(C)C)NC(=O)[C@H](Cc2c[nH]c3ccccc23)NC1=O)C(C)C [peptide 3, [Leu^27]cyclo(Glu^22-Lys^26)-hPTH-(1-31)-NH2] (H-SVSEIQLMHNLGKHLNSMERVEWLRKLLQDV-NH2; lactam 22-26; N-terminus assumed)",increase in activity (AC) of cyclization plus Leu27 versus native sequence 1,[1]; ROS cell line,~6 fold
same,trabecular thickness (bone-building potency),"[2]; 0.6 nmole/100 g s.c., 36 injections, weeks 2-8 after OVX",especially superior activity compared to the linear analogue
same,trabecular bone volume,[3]; listed as (Leu^27)cyclo(Glu^22-Lys^26)-hPTH-(1-31)NH2,restored the trabecular bone volume to the values in normal control rats
same,trabecular bone volume,[3]; listed as (Leu^27)cyclo(Glu^22-Lys^26)hPTH-(1-31)-NH2,"most effective of the fragments, restoring the bones to the values in normal control rats"
same,"hypotensive action, in words",[4]; subcutaneous injection,enhanced hypotensive effects
same,time for tail artery pressure to fall to its minimum,[4]; subcutaneous injection,much shorter time
"CC[C@H](C)[C@H](NC(=O)[C@H](CCC(=O)O)NC(=O)[C@H](CO)NC(=O)[C@@H](NC(=O)[C@@H](N)CO)C(C)C)C(=O)N[C@@H](CCC(N)=O)C(=O)N[C@@H](CC(C)C)C(=O)N[C@@H](CCSC)C(=O)N[C@@H](Cc1c[nH]cn1)C(=O)N[C@@H](CC(N)=O)C(=O)N[C@@H](CC(C)C)C(=O)NCC(=O)N[C@@H](CCCCN)C(=O)N[C@@H](Cc1c[nH]cn1)C(=O)N[C@@H](CC(C)C)C(=O)N[C@@H](CC(N)=O)C(=O)N[C@@H](CO)C(=O)N[C@@H](CCSC)C(=O)N[C@@H](CCC(=O)O)C(=O)N[C@@H](CCCN=C(N)N)C(=O)N[C@H](C(=O)N[C@@H](CCC(=O)O)C(=O)N[C@@H](Cc1c[nH]c2ccccc12)C(=O)N[C@@H](CC(C)C)C(=O)N[C@@H](CCCN=C(N)N)C(=O)N[C@@H](CCCCN)C(=O)N[C@@H](CCCCN)C(=O)N[C@@H](CC(C)C)C(=O)N[C@@H](CCC(N)=O)C(=O)N[C@@H](CC(=O)O)C(N)=O)C(C)C [peptide 6, hPTH-(1-30)-NH2] (H-SVSEIQLMHNLGKHLNSMERVEWLRKKLQD-NH2)",EC50,[1]; [8],20 nM
same,EC50,[5]; [8],20 nM
same,rate of transport of subcutaneously injected peptide to the vascular system,"[4]; subcutaneous, 0.8 nmol/100 g of body weight",significantly (p<0.05) reduced rates of transport
"CC[C@H](C)[C@H](NC(=O)[C@H](CCC(=O)O)NC(=O)[C@H](CO)NC(=O)[C@@H](NC(=O)[C@@H](N)CO)C(C)C)C(=O)N[C@@H](CCC(N)=O)C(=O)N[C@@H](CC(C)C)C(=O)N[C@@H](CCSC)C(=O)N[C@@H](Cc1c[nH]cn1)C(=O)N[C@@H](CC(N)=O)C(=O)N[C@@H](CC(C)C)C(=O)NCC(=O)N[C@@H](CCCCN)C(=O)N[C@@H](Cc1c[nH]cn1)C(=O)N[C@@H](CC(C)C)C(=O)N[C@@H](CC(N)=O)C(=O)N[C@@H](CO)C(=O)N[C@@H](CCSC)C(=O)N[C@@H](CCC(=O)O)C(=O)N[C@@H](CCCNC(=N)N)C(=O)N[C@H](C(=O)N[C@@H](CCC(=O)O)C(=O)N[C@@H](Cc1c[nH]c2ccccc12)C(=O)N[C@@H](CC(C)C)C(=O)N[C@@H](CCCNC(=N)N)C(=O)N[C@@H](CCCCN)C(=O)N[C@@H](CCCCN)C(=O)N[C@@H](CC(C)C)C(=O)N[C@@H](CCC(N)=O)C(=O)N[C@@H](CC(=O)O)C(N)=O)C(C)C [peptide 6, hPTH-(1-30)-NH2] (H-SVSEIQLMHNLGKHLNSMERVEWLRKKLQD-NH2)","AC-stimulating activity, comparison in words",[1],stimulates AC almost as strongly as hPTH-(1-31)-NH and hPTH-(1-34)
same,"osteogenic activity, in words",[2],does not stimulate bone formation
same,time to reduction of tail artery pressure,[4],about 1 minute
same,"hypotensive action, in words",[4]; intravenous injection,potently hypotensive
same,"hypotensive action, in words",[4]; subcutaneous injection,reduces blood pressure as much as hPTH-(1-31)-NH2
same,time for tail artery pressure to fall to its minimum,[4]; subcutaneous injection,13.8 ± 2.3 min
same,total blood pressure drop versus other analogues,"[4]; subcutaneously or intravenously, 0.8 nmol/100 g of body weight",not significantly different (p>0.05)
"[Leu^27]-hPTH-(1-34)-NH2 (SVSEIQLMHNLGKHLNSMERVEWLRKLLQDVHNF-NH2; not fully specified (bridges); UniProt P01270 32-65, looked up, variant K27L) [reference compound]","AC activity in the ROS cell line, comparison in words",[5],more active in stimulating AC activity in the ROS cell line than hPTH-(1-34)-NH2
SVSEIQLMHNLGKHLNSMERVEWLRKKLQDV-NH2 (lactam 27-30) [cyclo(Lys^27-Asp^30)-hPTH-(1-31)-NH2],"adenylyl cyclase stimulation, EC50",PTH receptor [6],40.3 nM
same,Adenylyl Cyclase (EC50),PTH receptor [7],40 nM
B1,"osteogenic activity, in words",[2],equally osteogenic; also recorded: strongly osteogenic
same,time to reduction of tail artery pressure,[4],about 1 minute
same,"hypotensive action, in words",[4]; intravenous injection,no significant difference
same,reduction of tail artery pressure,[4]; [9],43.2±5.8 mm Hg
same,time to maximum drop in tail artery pressure,[4]; [9],0.9 ± 0.08 min
same,time for tail artery pressure to fall to its minimum,[4]; subcutaneous injection,needs the same amount of time to reduce the blood pressure
